Here are results for 11 compounds from patent publication US20020026053A1, “Novel 3-(substituted) -2- indolinones compounds and use thereof as inhibitors of protein kinase activity” (priority 1997, published 2002).

The subject of this assay is FLK-1 receptor. As to the kind of experiment: FLK-1 Assay (cellular/catalytic ELISA, VEGF-stimulated phosphotyrosine). The settings on record: protocol P.110. Also noted: concentration or dose not given beside the values. Type of assay: cell-based. An outline of the steps:
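NIH3T3 C7#3 cells engineered to express Flk-1 were serum-starved overnight (0.1% FBS), then exposed to compound for 2 h at 37 °C (final dilution 1:200, 0.5% DMSO) before VEGF stimulation. Lysates captured on anti-FLK-1 antiserum plates; phosphotyrosine detected by UB40 antibody/POD-ABTS ELISA versus untreated controls.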
(ELISA stands for enzyme-linked immunosorbent assay.)

Consider `O=C1Nc2ccc(CCCl)cc2C1=Cc1cccc(O)c1O` [10738/G06], for which the “Flk Kinase % Inhibition (P.110)” value was −52.4%.

Take `O=C1Nc2ccc(CCCl)cc2C1=Cc1cc(O)cc(O)c1` [10738/G07]: the “Flk Kinase % Inhibition (P.110)” value was −19.3%.

Turning to `O=C1Nc2ccc(CCCl)cc2C1=Cc1ccc(Cl)c(Cl)c1` [10738/G08], the “Flk Kinase % Inhibition (P.110)” value is reported as −15.2%.

As to `COc1ccccc1C=C1C(=O)Nc2ccc(CCCl)cc21` [10738/G09], the “Flk Kinase % Inhibition (P.110)” value amounted to 4.1%.

`CC(C)c1ccc(C=C2C(=O)Nc3ccc(CCCl)cc32)cc1` [10738/G10]: the “Flk Kinase % Inhibition (P.110)” value is −17.0%.

With `CCCOc1ccc(C=C2C(=O)Nc3ccc(CCCl)cc32)cc1` [10738/G11], the “Flk Kinase % Inhibition (P.110)” value is −8.1%.

Turning to `Cc1ccc(Oc2cccc(C=C3C(=O)Nc4c(Br)cc(Br)c(C)c43)c2)cc1` [10738/H02], the “Flk Kinase % Inhibition (P.110)” value is reported as −14.6%.

For `Cc1c(Br)cc(Br)c2c1C(=Cc1cccc(Oc3ccc(Cl)c(Cl)c3)c1)C(=O)N2` [10738/H03], the “Flk Kinase % Inhibition (P.110)” value was −6.2%.

Consider `COc1ccc(C=C2C(=O)Nc3c(Br)cc(Br)c(C)c32)cc1O` [10738/H04], for which the “Flk Kinase % Inhibition (P.110)” value is recorded as −17.9%.

Consider `Cc1c(Br)cc(Br)c2c1C(=Cc1cc(O)ccc1[N+](=O)[O-])C(=O)N2` [10738/H05], for which the “Flk Kinase % Inhibition (P.110)” value was −17.9%.

With `Cc1c(Br)cc(Br)c2c1C(=Cc1cccc(O)c1O)C(=O)N2` [10738/H06], the “Flk Kinase % Inhibition (P.110)” value is listed as −44.8%.
